From ChEMBL document CHEMBL1914458 (Eur J Med Chem, 2011)

What was measured:
[1] = target: Acetylcholinesterase (Electrophorus electricus, UniProt O42275)
[2] = Antioxidant activity assessed as trolox equivalent of AAPH-induced peroxyl radical scavenging activity at 0.5 to 10 uM after 10 mins by oxygen radical absorbance capacity-fluorescein assay; type: functional
[3] = target: Cholinesterase (Equus caballus, UniProt P81908)
[4] = Inhibition of self-mediated amyloid beta (1 to 42) aggregation at 20 uM after 48 hrs by thioflavin T fluorescence assay
[5] = Inhibition of self-mediated amyloid beta (1 to 42) aggregation at 10 uM after 48 hrs by thioflavin T fluorescence assay

Chain of Cholinesterase (P81908 whole entry): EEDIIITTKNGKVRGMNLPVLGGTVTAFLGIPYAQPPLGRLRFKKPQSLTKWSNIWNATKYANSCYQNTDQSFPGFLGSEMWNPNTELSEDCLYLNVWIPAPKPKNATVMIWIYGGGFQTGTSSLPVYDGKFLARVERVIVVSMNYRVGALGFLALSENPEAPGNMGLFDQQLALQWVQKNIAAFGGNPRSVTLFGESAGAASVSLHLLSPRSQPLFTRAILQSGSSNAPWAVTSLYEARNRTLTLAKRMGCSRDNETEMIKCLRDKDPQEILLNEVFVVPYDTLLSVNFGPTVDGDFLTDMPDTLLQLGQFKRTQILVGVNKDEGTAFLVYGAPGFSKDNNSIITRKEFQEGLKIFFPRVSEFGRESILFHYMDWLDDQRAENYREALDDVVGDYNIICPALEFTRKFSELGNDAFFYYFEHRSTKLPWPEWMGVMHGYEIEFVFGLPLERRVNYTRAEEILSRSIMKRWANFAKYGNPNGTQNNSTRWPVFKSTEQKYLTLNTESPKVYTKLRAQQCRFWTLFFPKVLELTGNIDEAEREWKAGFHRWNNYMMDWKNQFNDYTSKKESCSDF
Chain of Acetylcholinesterase (O42275 whole entry): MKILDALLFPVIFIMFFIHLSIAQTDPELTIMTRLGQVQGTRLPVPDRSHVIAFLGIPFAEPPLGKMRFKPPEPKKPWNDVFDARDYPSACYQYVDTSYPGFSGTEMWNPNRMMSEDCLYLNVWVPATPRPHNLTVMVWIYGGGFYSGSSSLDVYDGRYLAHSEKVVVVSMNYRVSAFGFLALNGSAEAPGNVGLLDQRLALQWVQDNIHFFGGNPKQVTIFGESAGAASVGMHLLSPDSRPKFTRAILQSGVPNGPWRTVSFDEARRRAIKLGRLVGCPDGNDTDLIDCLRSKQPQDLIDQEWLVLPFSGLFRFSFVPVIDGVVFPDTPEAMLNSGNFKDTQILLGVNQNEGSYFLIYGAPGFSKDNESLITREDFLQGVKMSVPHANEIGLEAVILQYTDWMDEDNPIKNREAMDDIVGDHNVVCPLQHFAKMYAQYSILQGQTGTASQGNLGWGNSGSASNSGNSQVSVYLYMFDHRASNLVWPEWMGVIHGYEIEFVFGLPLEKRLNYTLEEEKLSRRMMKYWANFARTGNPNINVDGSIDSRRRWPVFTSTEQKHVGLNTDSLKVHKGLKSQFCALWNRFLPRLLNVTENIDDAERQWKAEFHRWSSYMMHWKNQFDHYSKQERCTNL

| Compound | IC50 [1] [nM] | Ratio [2] | IC50 [3] [nM] | inhibition [4] [%] | inhibition [5] [%] |
| --- | --- | --- | --- | --- | --- |
| COc1ccc2cc3[n+](cc2c1NCCOc1ccccc1)CCc1cc2c(cc1-3)OCO2 | 688 | 5.15 | 727 |  |  |
| COc1ccc2cc3[n+](cc2c1NCC(C)C)CCc1cc2c(cc1-3)OCO2 | 1140 | 5.12 | 2020 |  |  |
| COc1ccc2cc3[n+](cc2c1NCCCCOc1ccccc1)CCc1cc2c(cc1-3)OCO2 | 349 | 3.68 | 1200 |  |  |
| COc1ccc2cc3[n+](cc2c1NCCc1ccccc1C)CCc1cc2c(cc1-3)OCO2 | 27 | 4.05 | 713 | 95 | 80 |
| COc1ccc2cc3[n+](cc2c1NCCc1cccc(C)c1)CCc1cc2c(cc1-3)OCO2 | 91 | 4.73 | 674 | 93.6 | 79 |
| COc1ccc2cc3[n+](cc2c1NCCc1ccccn1)CCc1cc2c(cc1-3)OCO2 | 1160 | 6.4 | 2500 |  |  |
| COc1ccc2cc3[n+](cc2c1OC)CCc1cc2c(cc1-3)OCO2 |  |  |  | 36.3 | 8.9 |
| COc1ccc2cc3[n+](cc2c1NCCCCCCOc1ccccc1)CCc1cc2c(cc1-3)OCO2 | 1420 | 2.8 | 1300 |  |  |
| COc1ccc2cc3[n+](cc2c1NCCCCOc1cccnc1)CCc1cc2c(cc1-3)OCO2 | 1170 | 4.63 | 2940 |  |  |
| COc1ccc2cc3[n+](cc2c1NCCc1ccc([N+](=O)[O-])cc1)CCc1cc2c(cc1-3)OCO2 | 693 | 2.83 | 841 | 82.6 | 73.7 |
| COc1ccc2[nH]cc(CCNc3c(OC)ccc4cc5[n+](cc34)CCc3cc4c(cc3-5)OCO4)c2c1 | 1260 | 6.06 | 1390 |  |  |
| COc1ccc2cc3[n+](cc2c1NCCCOc1ccccc1)CCc1cc2c(cc1-3)OCO2 | 588 | 5.4 | 216 |  |  |
| COc1ccc2cc3[n+](cc2c1NC(C)c1ccccc1)CCc1cc2c(cc1-3)OCO2 (stereo unspecified) | 1910 | 2.17 | 3280 |  |  |
| COc1ccc2cc3[n+](cc2c1NCCc1ccc(F)cc1)CCc1cc2c(cc1-3)OCO2 | 238 | 4.48 | 445 | 90.4 | 76.3 |
| COc1ccc2cc3[n+](cc2c1NCCc1cccs1)CCc1cc2c(cc1-3)OCO2 | 608 | 4.18 | 555 | 87.8 | 72.8 |
| COc1ccc(CCNc2c(OC)ccc3cc4[n+](cc23)CCc2cc3c(cc2-4)OCO3)cc1 | 990 | 4.68 | 2880 | 91.1 | 79 |
| COc1ccc(CCNc2c(OC)ccc3cc4[n+](cc23)CCc2cc3c(cc2-4)OCO3)cc1OC | 160 | 5.3 | 5820 | 70.1 | 54.1 |
| COc1ccc2cc3[n+](cc2c1NCc1ccccc1)CCc1cc2c(cc1-3)OCO2 | 936 | 4.32 | 2280 |  |  |
| COc1ccc2cc3[n+](cc2c1NCCc1ccccc1)CCc1cc2c(cc1-3)OCO2 | 209 | 4.8 | 406 | 92.2 | 79.2 |
| COc1ccc2cc3[n+](cc2c1NCCc1ccc(C)cc1)CCc1cc2c(cc1-3)OCO2 | 449 | 4.56 | 821 | 94 | 80 |
| COc1ccc2cc3[n+](cc2c1NCCCN(C)C)CCc1cc2c(cc1-3)OCO2 | 576 | 5.7 | 6320 |  |  |
| COc1ccc2cc3[n+](cc2c1NCCCCCOc1ccccc1)CCc1cc2c(cc1-3)OCO2 | 1090 | 3.64 | 1560 |  |  |
| COc1cc(/C=C/C(=O)CC(=O)/C=C/c2ccc(O)c(OC)c2)ccc1O |  |  |  |  | 30.7 |
| COc1ccc2cc3[n+](cc2c1OCCCCOc1ccccc1)CCc1cc2c(cc1-3)OCO2 |  | 1 |  |  |  |
| COc1ccc2cc3[n+](cc2c1NCCCCOc1cccc2ccccc12)CCc1cc2c(cc1-3)OCO2 | 400 | 2.49 | 511 |  |  |
| COc1ccc2cc3[n+](cc2c1NCCc1ccc(Cl)cc1Cl)CCc1cc2c(cc1-3)OCO2 | 130 | 3.36 | 424 | 93.6 | 81.3 |
| COc1ccc2cc3[n+](cc2c1NCCCc1ccccc1)CCc1cc2c(cc1-3)OCO2 | 680 | 3.51 | 785 |  |  |
